Data published in patent US5188952A, “Process for the decomposition of acrylamide” (Imperial Chemical Industries PLC, priority 1986, dated 1993).

Tested on: Methylophilus methylotrophus amidase (acylamide amidohydrolase EC No. 3-5-1-4)
Assay: Methylophilus methylotrophus amidase properties (Km)
Format: biochemical
Details: substrate of the amidase; conditions not given

SMILES	Km [mM]
CC(N)=O [Acetamide]	0.2
C=CC(N)=O [Acrylamide]	10
